Experimental data published in patent US20050038093A1, “Treating diabetic retinopathy with angiotensin II receptor blockers” (Boehringer Ingelheim International GmbH, priority 2003, published 2005).

Columns and labels:
VEGF mRNA = experiment: Quantitative reverse transcription PCR of VEGF mRNA in pericytes; type: cell-based, bovine; conditions: 10^-7 M angiotensin II, 4 hours; for inhibition of angiotensin II-induced up-regulation of VEGF mRNA levels in pericytes: 10^-7 M telmisartan or 1 mM NAC
Protocol: Sequences and primers for detecting VEGF and β-actin mRNAs are described in Yamagishi et al, J Biol Chem 272:8723, 1997.
(§1) Poly(A)^+ RNAs were isolated from cells treated with or without 10^−7 M angiotensin II in the presence or absence of 10^−7 M telmisartan or 1 mM NAC for 4 hours, and analyzed by quantitative reverse transcription PCR (RT-PCR) as described in Yamagishi et al, Diabetologia 41:1435, 1998. The amounts of poly(A)^+ RNA templates (about 30 ng) and cell cycle numbers for amplification (28 cycles for VEGF gene and 22 cycles for β-actin gene) were chosen in quantitative ranges were reactions proceeded linearly, which had been determined by plotting signal intensities as functions of the template amounts and cell cycle numbers as described in Yamagishi et al, J Biol Chem 277:20309, 2002.
It has been reported that there exist five alternatively spliced products from the single VEGF gene. They are designated as VEGF121, VEGF145, VEGF165 VEGF189, and VEGF206. Since Northern blot analysis can not clearly discriminate these five mRNA products, we employed a more sensitive semi-quantitative RT-PCR technique as described in Okamoto et al, FASEB J 16:1928, 2002. In these experiments, cDNA products of 486 and 618 base pairs length are amplified from mRNAs for VEGF121 and VEGF165, respectively. […] The VEGF mRNA level was about 1.5 fold higher than the basal level when exposed to 10^−7 M angiotensin II.

PDGF-B mRNA = experiment: Quantitative reverse transcription PCR of PDGF-B mRNA in cultured retinal pericytes; type: cell-based, bovine; conditions: 10^-7 M angiotensin II, 4 hours; for inhibition of angiotensin II induced up-regulation of PDGF mRNA levels: 10^-7 M telmisartan or 1 mM NAC
Protocol: as §1, with “To investigate the effects of angiotensin II on PDGF-B gene expression in cultured retinal pericytes, poly(A)^+” for “Poly(A)^+”, “RT-PCR” for “quantitative reverse transcription PCR (RT-PCR)”, “Kidney Int 63:464, 2003.” for “Diabetologia 41:1435, 1998.”, “PDGF-B” for “VEGF”, “2002. Sequences of primers for detecting bovine β-actin mRNAs were the same as described in Okamoto et al, FASEB J 16:1928, 2002.” for “2002.”

[1] = system: pericytes isolated from bovine retina; experiment: Measurement of reactive oxygen species in pericytes; type: cell-based; conditions: for inhibition of angiotensin II-induced increase in the generation of reactive oxygen species in pericytes: 10^-7 M telmisartan, 10^-7 or 10^-6 M angiotensin II
Protocol: (§2) Pericytes were isolated from bovine retina and maintained in Dulbecco's Eagle's medium supplemented with 20% of fetal bovine serum (FBS) as described in Yamagishi et al, Circulation 87:1969, 1993.
Angiotensin II treatment was carried out in medium containing 2% FBS. Pericytes were treated with or without 10^−7 or 10^−6 M angiotensin II in the presence or absence of 10^−7 M telmisartan for 24 hours. Then the intracellular formation of reactive oxygen species was detected as described in Yamagishi et al, A J Biol Chem 276:25096, 2001 by using the fluorescent probe CM-H2DCFDA (Molecular Probes Inc, Eugene, Oreg.).

pericytes = experiment: Measurement of [3H]thymidine incorporation in pericytes; type: cell-based, bovine; conditions: 10^-7 M angiotensin, 24 hours
Protocol: as §2
Pericytes were treated with or without 10^−7 M angiotensin in the presence or absence of 1 mM N-acetylcystein (NAC) for 24 hours, and then [^3H]thymidine incorporation in cells was determined as described in Yamagishi et al, FEBS Lett 384:103, 1996.

[2] = IDNT study (Lewis et al, 2001); cited from earlier work
[3] = EUCLID study, cited from earlier work

In the case of `CC(=O)N[C@@H](CS)C(=O)O` [NAC, N-acetylcystein], the “inhibition of angiotensin II-induced up-regulation of VEGF mRNA levels in pericytes” value (VEGF mRNA) is reported as “completely inhibit”, the “inhibition of angiotensin II induced up-regulation of PDGF mRNA levels” value (PDGF-B mRNA) is reported as “significantly inhibit” and the “reversal of angiotensin II-induced increase in generation of reactive oxygen species by antioxidant” value ([1]; added during treatment of pericytes with angiotensin II) is reported as “reverses the increase”. For the same molecule, the “prevention of angiotensin II-induced decrease in DNA synthesis in pericytes” value (pericytes; 1 mM NAC) was “significantly prevented”.

In the case of `CCCCC1=NC2(CCCC2)C(=O)N1Cc1ccc(-c2ccccc2-c2nnn[nH]2)cc1` [irbesartan], the “protection against the progression of nephropathy due to type II diabetes” value [2] is given as “effective”.

For `NCCCC[C@H](N[C@@H](CCc1ccccc1)C(=O)O)C(=O)N1CCC[C@H]1C(=O)O` [lisinopril], the “risk of progression to proliferative retinopathy” value [3] is listed as “significantly reduced” and the “reduction of the risk of progression of retinopathy” value ([3]; retinopathy not a primary endpoint) is listed as “approximately 50%”.

For `CCCc1nc2c(C)cc(-c3nc4ccccc4n3C)cc2n1Cc1ccc(-c2ccccc2C(=O)O)cc1` [telmisartan], the “inhibition of angiotensin II-induced up-regulation of VEGF mRNA levels in pericytes” value (VEGF mRNA) was “completely inhibit”, the “inhibition of angiotensin II induced up-regulation of PDGF mRNA levels” value (PDGF-B mRNA) was “significantly inhibit” and the “effect of compound alone on generation of reactive oxygen species” value ([1]; 10^-7 M telmisartan without angiotensin II, 24 hours) was “did not affect”. For the same molecule, the “inhibition of angiotensin II-induced increase in the generation of reactive oxygen species in pericytes” value ([1]; 24 hours) was “inhibit” and the “inhibition of angiotensin II-induced increase in the generation of reactive oxygen species in pericytes” value ([1]; 24 hours, listed as Telmisartan) was “completely inhibit”.

In the case of “angiotensin II (DRVYIHPF; Angiotensin-2; UniProt P01019 25-32, looked up) [stimulus used on pericytes]”, the “VEGF mRNA level relative to basal level” value (VEGF mRNA) is reported as “about 1.5 fold”, the “PDGF-B mRNA level relative to basal level” value (PDGF-B mRNA) is reported as “about 5 fold” and the “increase of intracellular generation of reactive oxygen species” value ([1]; 10^-6 M angiotensin II, 24 hours, medium with 2% FBS) is reported as “about 1.3 fold”. For the same molecule, the “effect on DNA synthesis in pericytes ([3H]thymidine incorporation)” value (pericytes) was “significantly inhibited”.
